Test results: US5461067A, “Retroviral protease inhibiting compounds” (priority 1994, dated 1995)
Like-named read-outs stand apart in the source and are kept apart here.

Tests used:
HIV-1 protease = HIV-1 protease (Human immunodeficiency virus type 1 group M subtype B, UniProt P04585); assay: Fluorogenic assay for screening inhibitors of HIV protease
Procedure: The inhibitory potency of the compounds of the invention can be determined by the following method.
A compound of the invention is dissolved in DMSO and a small aliquot further diluted with DMSO to 100 times the final concentration desired for testing. The reaction is carried out in a 6×50 mm tube in a total volume of 300 microliters. The final concentrations of the components in the reaction buffer are: 125 mM sodium acetate, 1M sodium chloride, 5 mM dithiothreitol, 0.5 mg/ml bovine serum albumin, 1.3 μM fluorogenic substrate, 2% (v/v) dimethylsulfoxide, pH 4.5. After addition of inhibitor, the reaction mixture is placed in the fluorometer cell holder and incubated at 30° C. for several minutes. The reaction is initiated by the addition of a small aliquot of cold HIV protease. The fluorescence intensity (excitation 340 nm, emmision 490 nM) is recorded as a function of time. The reaction rate is determined for the first six to eight minutes. The observed rate is directly proportional to the moles of substrate cleaved per unit time. The percent inhibition is 100×(1-(rate in presence of inhibitor)/(rate in absence of inhibitor)).

[1] = Cytotoxicity in MT4 cells; assay type: cell-based; conditions: human, concentration at which 50% of the cells remain viable, read-out: LC50 (the source's name)
Excerpt: (§1) The IC50 is the concentration of compound that gives 50% inhibition of the cytopathic effect of HIV. The LC50 is the concentration of compound at which 50% of the cells remain viable.

HIV-13B in MT4 cells = assay: Anti-HIV activity (inhibition of cytopathic effect of HIV) in MT4 cells; assay type: cell-based; conditions: Human immunodeficiency virus 1, concentration giving 50% inhibition of cytopathic effect of HIV
Excerpt: as §1

[2] = pH 4.5, read-out: Percent Inhibition

Molecule `CC(C)(C)OC(=O)NN(Cc1ccc(OCCN2CCOCC2)cc1)C[C@H](O)[C@H](Cc1ccccc1)NC(=O)OCc1ccccc1` [Example 57C, 2-(t-Butyloxycarbonyl)amino-5S-(benzyloxycarbonyl)amino-4S-hydroxy-1-(4-((2-morpholinyl)ethoxy)phenyl)-6-phenyl-2-azahexane] has an IC50 (HIV-1 protease) of 9.9 nM and an inhibition at 0.0099 µM (HIV-1 protease; [2]) of 50%.

`COc1cccc(CN(C[C@H](O)[C@H](Cc2ccccc2)NC(=O)OCc2ccccc2)NC(=O)OC(C)(C)C)c1` [Example 17B] gave an inhibition at 0.012 µM (HIV-1 protease; [2]) of 50% and an IC50 (HIV-1 protease; read-out: Inhibitor Concentration (at 50 Percent Inhibition), concentration printed with 50 percent inhibition, pH 4.5, 30° C.) of 12 nM.

`CC(C)c1nc(CN(C)C(=O)N[C@H](C(=O)NN(Cc2ccccc2)C[C@H](O)[C@H](Cc2ccccc2)NC(=O)OCc2cncs2)C(C)C)cs1` [Example 8, 5S-(((5-Thiazolyl)methoxy)carbonyl)amino-2-N-((N-methyl-N-((2-isopropyl-4-thiazolyl)methyl)amino)carbonyl)-L-valinylamino-4S-hydroxy-1,6-diphenyl-2-azahexane] showed an inhibition at 0.0005 µM (HIV-1 protease; [2]) of 77%, a CC50 [1] of 17000 nM and an IC50 (HIV-13B in MT4 cells) of 100 to 110 nM.

Molecule `CC(C)c1nc(CN(C)C(=O)N[C@H](C(=O)NN(Cc2ccccc2)C[C@H](O)[C@H](Cc2ccccc2)NC(=O)OCc2ccccc2)C(C)C)cs1` [Example 6H, 5S-(Benzyloxycarbonyl)amino-2-N-(((N-methyl-N-((2-isopropyl-4-thiazolyl)methyl)amino)carbonyl)-L-valinyl)amino-4S-hydroxy-1,6-diphenyl-2-azahexane] has an inhibition at 0.0005 µM (HIV-1 protease; [2]) of 73%.

For `CC(C)(C)OC(=O)NN(Cc1ccc(O)cc1)C[C@H](O)[C@H](Cc1ccccc1)NC(=O)OCc1ccccc1` [Example 52, 5S-(Benzyloxycarbonyl)amino-2-(t-butyloxycarbonyl)amino-4S-hydroxy-1-(4-hydroxyphenyl)-6-phenyl-2-azahexane], the IC50 (HIV-1 protease) was 7.5 nM and the inhibition at 0.0075 µM (HIV-1 protease; [2]) was 50%.

`CC(C)(C)OC(=O)NN(Cc1ccccc1)C[C@H](O)[C@H](Cc1ccccc1)NC(=O)OCc1cccnc1` [Example 4B, 5S-((3-Pyridinyl)methoxycarbonyl)amino-2-t-butyloxycarbonylamino-4S-hydroxy-1,6-diphenyl-2-azahexane] showed an IC50 (HIV-1 protease) of 3.9 nM and an inhibition at 0.0039 µM (HIV-1 protease; [2]) of 50%.

In the case of `CC(C)c1nc(CN(C)C(=O)N[C@H](C(=O)NN(Cc2ccccc2)C[C@H](O)[C@H](Cc2ccccc2)NC(=O)OCc2ccccc2)C(C)C)co1` [Example 11, 5S-(Benzyloxycarbonyl)amino-2-N-((N-methyl-N-((2-isopropyl-4-oxazolyl)methyl)amino)carbonyl)-L-valinylamino-4S-hydroxy-1,6-diphenyl-2-azahexane], the inhibition at 0.0005 µM (HIV-1 protease; [2]) is reported as 69%, the CC50 [1] is reported as 18000 nM and the IC50 (HIV-13B in MT4 cells) is reported as 230 nM.

Work on `CC(C)(C)OC(=O)NN(Cc1cccc(O)c1)C[C@H](O)[C@H](Cc1ccccc1)NC(=O)OCc1ccccc1` [Example 55C, 5S-(Benzyloxycarbonyl)amino-2-(t-butyloxycarbonyl)amino-4S-hydroxy-1-(3-hydroxyphenyl)-6-phenyl-2-azahexane] yielded an IC50 (HIV-1 protease) of 7.4 nM and an inhibition at 0.0074 µM (HIV-1 protease; [2]) of 50%.

Work on `CC(C)(C)OC(=O)NN(Cc1ccccc1)C[C@H](O)[C@H](Cc1ccccc1)NC(=O)OCc1cncs1` [Example 7F, 5S-(((5-Thiazolyl)methoxy)carbonyl)amino-2-(t-butyloxycarbonyl)amino-4S-hydroxy-1,6-diphenyl-2-azahexane] yielded an IC50 (HIV-1 protease) of 4.4 nM, an inhibition at 0.0044 µM (HIV-1 protease; [2]) of 50% and a CC50 [1] of 44000 nM. The IC50 (HIV-13B in MT4 cells) was 6500 to 18200 nM.

With `CC(C)[C@H](NC(=O)OCc1ccccn1)C(=O)N[C@@H](Cc1ccccc1)[C@@H](O)CN(Cc1ccccc1)NC(=O)OCc1cccnc1` [Example 5B, 5S-N-((2-Pyridinyl)methoxycarbonyl)valinylamino-2-((N-3-pyridinyl)methoxycarbonyl)amino-4S-hydroxy-1,6-diphenyl-2-azahexane] the inhibition at 0.0005 µM (HIV-1 protease; [2]) was 60%, the CC50 [1] was > 100000 nM and the IC50 (HIV-13B in MT4 cells) was 150 to 260 nM.

In the case of `CC(C)(C)OC(=O)NN(Cc1ccccc1)C[C@H](O)[C@H](Cc1ccccc1)NC(=O)OCc1ccccc1` [Example 1F, 2-(t-Butyloxycarbonyl)amino-4S-hydroxy-5S-(benzyloxycarbonyl)amino-1,6-diphenyl-2-azahexane], the IC50 (HIV-1 protease) is reported as 5.1 nM, the inhibition at 0.0051 µM (HIV-1 protease; [2]) is reported as 50% and the CC50 [1] is reported as > 100000 nM. For the same molecule, the IC50 (HIV-13B in MT4 cells) was 36000 nM.

`CC(C)c1nc(CN(C)C(=O)N[C@H](C(=O)NN(Cc2ccccc2)C[C@H](O)[C@H](Cc2ccccc2)NC(=O)OCc2ccno2)C(C)C)co1` [Example 13D, 5S-N-((5-Isoxazolyl)methoxy)carbonylamino-2-N-((N-methyl-N-((2-isopropyl-4-oxazolyl)methyl)amino)carbonyl)-L-valinylamino-4S, hydroxy-1,6-diphenyl-2-azahexane] showed an inhibition at 0.0005 µM (HIV-1 protease; [2]) of 71%, a CC50 [1] of 58000 nM and an IC50 (HIV-13B in MT4 cells) of 102 to 150 nM.

With `COc1ccc(CN(C[C@H](O)[C@H](Cc2ccccc2)NC(=O)[C@@H](NC(=O)OCc2ccccn2)C(C)C)NC(=O)OC(C)(C)C)cc1` [Example 15, 5S-N-((2-Pyridinyl)methoxycarbonyl)-L-valinylamino-2-N-(t-butyloxycarbonyl)amino-4S-hydroxy-1-p-methoxyphenyl-6-phenyl-2-azahexane] the inhibition at 0.0005 µM (HIV-1 protease; [2]) was 44%, the CC50 [1] was > 100000 nM and the IC50 (HIV-13B in MT4 cells) was 440 to 600 nM.

Molecule `CC(C)c1nc(CN(C)C(=O)N[C@H](C(=O)N[C@@H](Cc2ccccc2)[C@@H](O)CN(Cc2ccccc2)NC(=O)OC(C)(C)C)C(C)C)co1` [Example 9F, 5S-N-((N-Methyl-N-((2-isopropyl-4-oxazolyl)methyl)amino)carbonyl)-L-valinylamino-2-N-(t-butyloxycarbonyl)amino-4S-hydroxy-1,6-diphenyl-2-azahexane] has an inhibition at 0.0005 µM (HIV-1 protease; [2]) of 61%, a CC50 [1] of 19000 nM and an IC50 (HIV-13B in MT4 cells) of 460 to 1000 nM.

`CC(C)c1nc(COC(=O)N[C@H](C(=O)N[C@@H](Cc2ccccc2)[C@@H](O)CN(Cc2ccc(F)cc2)NC(=O)OC(C)(C)C)C(C)C)co1` [Example 51D] showed an IC50 (HIV-1 protease) of 0.5 nM, an inhibition at 0.0005 µM (HIV-1 protease; [2]) of 50% and an IC50 (HIV-13B in MT4 cells) of 209 to 274 nM.

With `CC(C)c1nc(COC(=O)N[C@H](C(=O)NN(Cc2ccccc2)C[C@H](O)[C@H](Cc2ccccc2)NC(=O)OCc2cncs2)C(C)C)co1` [Example 50, 5 S-(((5-Thiazolyl)methoxy)carbonyl)amino-2-((N-2-isopropyl-4-oxazolyl)methoxycarbonyl)amino-4S-hydroxy-1,6-diphenyl-2-azahexane] the inhibition at 0.0005 µM (HIV-1 protease; [2]) was 73% and the IC50 (HIV-13B in MT4 cells) was 16 to 31 nM.

In the case of `CC(C)(C)OC(=O)NN(Cc1ccoc1)C[C@H](O)[C@H](Cc1ccccc1)NC(=O)OCc1cncs1` [Example 47], the IC50 (HIV-1 protease) is reported as 2.1 nM and the inhibition at 0.0021 µM (HIV-1 protease; [2]) is reported as 50%.

Molecule `CC(C)c1nc(CN(C)C(=O)N[C@H](C(=O)NN(Cc2ccoc2)C[C@H](O)[C@H](Cc2ccccc2)NC(=O)OCc2cncs2)C(C)C)cs1` [Example 48, 5S-(((5-Thiazolyl)methoxy)carbonyl)amino-2-N-(((N-methyl-N-( (2-isopropyl-4-thiazolyl)methyl)amino)carbonyl)-L-valinyl)amino-4S-hydroxy-1-(3-furanyl)-6-phenyl-2-azahexane] has an inhibition at 0.0005 µM (HIV-1 protease; [2]) of 66% and an IC50 (HIV-13B in MT4 cells) of 88 to 114 nM.

Work on `CC(C)c1nc(CN(C)C(=O)N[C@H](C(=O)NN(Cc2cccc(O)c2)C[C@H](O)[C@H](Cc2ccccc2)NC(=O)OCc2cncs2)C(C)C)cs1` [Example 56B, 5S-(((5-Thiazolyl)methoxy)carbonyl)amino-2-N-((((N-methyl-N-2-isopropyl-4-thiazolyl)methyl)amino)carbonyl)-L-valinylamino-4S-hydroxy-1-(3-hydroxyphenyl)-6-phenyl-2-azahexane] yielded an inhibition at 0.0005 µM (HIV-1 protease; [2]) of 49%.

`COc1ccc(CN(C[C@H](O)[C@H](Cc2ccccc2)NC(=O)OCc2ccccc2)NC(=O)OC(C)(C)C)cc1` [Example 14B, 5S-N-(Benzyloxycarbonyl)amino-2-N-(t-butyloxycarbonyl)amino-4S-hydroxy-1-p-methoxyphenyl-6-phenyl-2-azahexane] showed an IC50 (HIV-1 protease) of 10 nM and an inhibition at 0.01 µM (HIV-1 protease; [2]) of 50%.

With `CC(C)c1nc(COC(=O)N[C@H](C(=O)NN(Cc2ccoc2)C[C@H](O)[C@H](Cc2ccccc2)NC(=O)OCc2cncs2)C(C)C)co1` [Example 49E, 5S-(((5-Thiazolyl)methoxy)carbonyl)amino-2-((N-2-isopropyl-4-oxazolyl)methoxycarbonyl)amino-4S-hydroxy-1-(3-furanyl)-6-phenyl-2-azahexane] the inhibition at 0.0005 µM (HIV-1 protease; [2]) was 75% and the IC50 (HIV-13B in MT4 cells) was 29 to 32 nM.

In the case of `COc1ccc(CN(C[C@H](O)[C@H](Cc2ccccc2)NC(=O)[C@@H](NC(=O)OCc2ccccn2)C(C)C)NC(=O)OCc2cccnc2)cc1` [Example 16, 5S-N-((2-Pyridinyl)methoxycarbonyl)-L-valinylamino-2-N-((3-pyridinyl)methoxycarbonyl)amino-4S-hydroxy-1-p-methoxyphenyl-6-phenyl-2-azahexane], the IC50 (HIV-1 protease) is reported as 0.5 nM, the inhibition at 0.0005 µM (HIV-1 protease; [2]) is reported as 50% and the CC50 [1] is reported as 57000 nM. It also gave an IC50 (HIV-13B in MT4 cells) of 200 to 270 nM.

With `CC(C)c1nc(CN(C)C(=O)N[C@H](C(=O)NN(Cc2ccc(O)cc2)C[C@H](O)[C@H](Cc2ccccc2)NC(=O)OCc2cncs2)C(C)C)cs1` [Example 54B] the inhibition at 0.0005 µM (HIV-1 protease; [2]) was 56% and the IC50 (HIV-13B in MT4 cells) was 37 to 67 nM.

In the case of `CC(C)c1nc(COC(=O)N[C@H](C(=O)N[C@@H](Cc2ccccc2)[C@@H](O)CN(Cc2ccc(O)cc2)NC(=O)OC(C)(C)C)C(C)C)co1` [Example 53, 5S-(((2-Isopropyl-4-oxazolyl)methoxycarbonyl)-valinyl)amino-2-(t-butyloxycarbonyl)amino-4S-hydroxy-1-(4-hydroxyphenyl)-6-phenyl-2-azahexane], the inhibition at 0.0005 µM (HIV-1 protease; [2]) is reported as 57% and the IC50 (HIV-13B in MT4 cells) is reported as 55 nM.

`CC(C)(C)OC(=O)NN(Cc1ccc(-c2ccccc2)cc1)C[C@H](O)[C@H](Cc1ccccc1)NC(=O)OCc1ccccc1` [Example 58, 2-(t-Butyloxycarbonyl)amino-5S-(benzyloxycarbonyl)amino-4S-hydroxy-1-(4-biphenyl)-6-phenyl-2-azahexane] gave an IC50 (HIV-1 protease) of 18 nM and an inhibition at 0.018 µM (HIV-1 protease; [2]) of 50%.
